Laboratory results from BigSolDB 2.1.

CC(C)=CCOc1c2ccoc2cc2oc(=O)ccc12
solubility (mole fraction)
Conditions	288.2 K	293.2 K	298.2 K	303.2 K	308.2 K	313.2 K	318.2 K	323.2 K	328.2 K
in ethanol	0.00263	0.00377	0.00531	0.00733	0.00999	0.0134	0.0178	0.023	0.03
in water	6.03e-07	7.42e-07	9.34e-07	1.02e-06	1.16e-06	1.29e-06	1.68e-06	2.17e-06	2.79e-06
